In US20020086278A1, “CHROMOGENIC MEDIA CONTAINING BLOOD OR HEMIN” (priority 1999, published 2002):
Like-named read-outs stand apart in the source and are kept apart here.

What was measured:
S. pneumoniae (stpn) = experiment: Example 3: colony color on chromogenic TSA II with 5% sheep blood (chromogen in medium); assay type: cell-based
[1] = system: Entercoccus faecalis (enfa); experiment: as above; assay type: cell-based
Salmonella spp. (sasp) = assay type: cell-based; conditions: for Colony Color: CO2, 21 h
Escherichia coli 25922 = experiment: Example 1: growth and colony color on plates surface-spread with chromogen; assay type: cell-based; conditions: E. coli 25922
E. coli 25922 = experiment: Example 2: effect of incubation conditions on colony color formation; assay type: cell-based, Escherichia coli; conditions: 0.004 g/plate
[2] = system: Branhamella catarrhalis (brca); experiment: Example 3: colony color on chromogenic TSA II with 5% sheep blood (chromogen in medium); assay type: cell-based; conditions: for Colony Color: CO2, 21 h
[3] = system: Klebsiella pneumoniae (klpn); experiment: as above; assay type: cell-based; conditions: for Colony Color: CO2, 21 h
S. milleri (stmi) = experiment: as above; assay type: cell-based; conditions: for Colony Color: stmi 6249, 21 h
N. gonorrhoeae 35201 = experiment: Example 1: growth and colony color on plates surface-spread with chromogen; assay type: cell-based; conditions: Substrate on Choclate II Agar; N. gono. 35201
[4] = system: Streptococcus pneumoniae 6303; experiment: as above; assay type: cell-based; conditions: TSA II 5SB; S. pneu: 6303
[5] = system: Streptococcus agalactiae (stag); experiment: Example 3: colony color on chromogenic TSA II with 5% sheep blood (chromogen in medium); assay type: cell-based
[6] = system: E. coli (non-O157) (esco); assay type: cell-based
S pyogenes (stpy) = experiment: Example 3: colony color on chromogenic TSA II with 5% sheep blood (chromogen in medium); assay type: cell-based; conditions: for Colony Color: 21 h
E. faecium (enfu) = experiment: as above; assay type: cell-based
[7] = system: Citrobacter freundii (cifr); experiment: as above; assay type: cell-based; conditions: for Colony Color: CO2, 21 h
Group B Strep. 12386 = experiment: Example 1: growth and colony color on plates surface-spread with chromogen; assay type: cell-based; conditions: for Growth: Group B Strep 12386
Candida albicans (caal) = experiment: Example 3: colony color on chromogenic TSA II with 5% sheep blood (chromogen in medium); assay type: cell-based; conditions: for Colony Color: caal 10231, 24 h
[8] = system: Staphylococcus aureus (stau); experiment: as above; assay type: cell-based
[9] = system: Aeromonas hydrophilia (aehy); experiment: as above; assay type: cell-based; conditions: for Colony Color: CO2, 21 h
[10] = system: Pseudomonas aeruginosa (psae); experiment: as above; assay type: cell-based; conditions: for Colony Color: CO2, 21 h
[11] = system: Gardnerella vaginalis 14019; experiment: Example 1: growth and colony color on plates surface-spread with chromogen; assay type: cell-based; conditions: Summary of Table I; G. vaginalis 14014
[12] = system: Serratia marcescens (sema); experiment: Example 3: colony color on chromogenic TSA II with 5% sheep blood (chromogen in medium); assay type: cell-based
milu 9341 = experiment: as above; assay type: cell-based; conditions: CO2, 21 h
[13] = chromogenic TSA II with 5% Sheep Blood, 0.1 g/l, 6 strains tested
[14] = chromogenic TSA II with 5% Sheep Blood, 0.1 g/l, 2 strains tested
[15] = chromogenic TSA II with 5% Sheep Blood, 0.1 g/l, 3 strains tested
[16] = chromogenic TSA II with 5% Sheep Blood, 0.1 g/l, 1 strain tested

OC[C@H]1O[C@@H](Oc2c[nH]c3ccc(Br)c(Cl)c23)[C@H](O)[C@@H](O)[C@H]1O [X-Gal, 5-Br-4-Cl-3-indolyl-β-D-galactopyranoside]
dark blue: Colony Color (E. faecium (enfu); E. faecium (ATCC 49032))
0: Colony Color (Summary) (S. pneumoniae (stpn); [13]) | Colony Color (S. pneumoniae (stpn); stpn 1259, CO2, 21 h) | Colony Color (S. pneumoniae (stpn); stpn 1260, CO2, 21 h) | Colony Color (S. pneumoniae (stpn); stpn 1628, CO2, 21 h) | Colony Color (S. pneumoniae (stpn); stpn 6303, CO2, 24 h) | Colony Color (S. pneumoniae (stpn); stpn 6303, air, 24 h) | Colony Color (S. pneumoniae (stpn); stpn 6305, CO2, 24 h) | Colony Color (S. pneumoniae (stpn); stpn 6305, air, 24 h) | Colony Color ([1]; enfa 597, CO2, 21 h) | Colony Color ([1]; enfa 597, air, 21 h) | Colony Color ([1]; enfa 12953, CO2, 21 h) | Colony Color ([1]; enfa 12953, air, 21 h) | Colony Color ([1]; enfa 14506, air, 21 h) | Colony Color (Summary) (Salmonella spp. (sasp); [14]) | Colony Color (Salmonella spp. (sasp); saty 19430) | Colony Color (Salmonella spp. (sasp); satym 14028) | Colony Color ([2]; brca 25238) | Colony Color ([2]; brca 25240) | Colony Color (Summary) [2, 14] | Colony Color (Summary) (S. milleri (stmi); [14]) | Colony Color (S. milleri (stmi); CO2) | Colony Color (S. milleri (stmi); air) | Colony Color (Summary) [5, 15] | Colony Color ([5]; stag 4768, CO2, 21 h) | Colony Color ([5]; stag 4768, air, 21 h) | Colony Color ([5]; stag 12386, CO2, 21 h) | Colony Color ([5]; stag 12386, CO2, 24 h) | Colony Color ([5]; stag 12386, air, 24 h) | Colony Color (Summary) (S pyogenes (stpy); [13]) | Colony Color (S pyogenes (stpy); stpy 1027, CO2) | Colony Color (S pyogenes (stpy); stpy 1028, CO2) | Colony Color (S pyogenes (stpy); stpy 1029, CO2) | Colony Color (S pyogenes (stpy); stpy 1030, CO2) | Colony Color (S pyogenes (stpy); stpy 19615, CO2) | Colony Color (S pyogenes (stpy); stpy 19615, air) | Colony Color (S pyogenes (stpy); stpy 49117, CO2) | Colony Color (S pyogenes (stpy); stpy 49117, air) | Colony Color (S pyogenes (stpy); stpy 51339, CO2) | Colony Color (S pyogenes (stpy); stpy 51339, air) | Colony Color (Candida albicans (caal); CO2) | Colony Color (Candida albicans (caal); air) | Colony Color (Summary) (Candida albicans (caal); [14]) | Colony Color (Summary) ([8]; chromogenic TSA II with 5% Sheep Blood, 0.1 g/l, 5 strains tested) | Colony Color ([8]; stau 1006, CO2, 21 h) | Colony Color ([8]; stau 1007, CO2, 21 h) | Colony Color ([8]; stau 1008, CO2, 21 h) | Colony Color ([8]; stau 1009, CO2, 21 h) | Colony Color ([8]; stau 25923, CO2, 24 h) | Colony Color ([8]; stau 25923, air, 24 h) | Colony Color (Summary) [9, 15] | Colony Color (Summary) [10, 15] | Colony Color ([10]; psae 9027) | Colony Color ([10]; psae 15442) | Colony Color ([10]; psae 33607) | Colony Color (milu 9341)
Slight inhib. w/ X-: Substrates Producing Growth Inhibition (Group B Strep. 12386; Summary of Table I, Group B Strep. 12386)
light blue: Color [4]
vlgb: Colony Color ([1]; enfa 29212, CO2, 24 h) | Colony Color ([1]; enfa 29212, air, 24 h)
db: Colony Color (E. faecium (enfu); enfu 49032, air, 21 h)
blue (d): Colony Color (E. coli 25922; Chocolate II Agar, 24 h, air) | Colony Color (E. coli 25922; TSA II 5% Sheep Blood, 24 h, air) | Colony Color (E. coli 25922; TSA II 5% Sheep Blood, 5 d, ANA) | Colony Color (E. coli 25922; TSA II 5% Sheep Blood, 5 d, MA)
X-Gal: Substrates Producing Color (Escherichia coli 25922; Summary of Table I) | Substrates Producing Growth Inhibition [11]
+: Colony Color (Summary) [3, 15] | Colony Color (Summary) [6, 15] | Colony Color (Summary) (E. faecium (enfu); [16]) | Colony Color (Summary) [7, 14] | Colony Color (Summary) [12, 16]
blue: Color (Escherichia coli 25922; Choc II) | Color (Escherichia coli 25922; TSA II 5SB) | Color (Escherichia coli 25922; TSA Plain)
gb: Colony Color ([1]; enfa 10741, CO2, 21 h) | Colony Color ([1]; enfa 29212, CO2, 21 h) | Colony Color ([1]; enfa 29212, air, 21 h) | Colony Color ([3]; klpn 13883) | Colony Color ([3]; klpn 33606) | Colony Color ([6]; esco 33605, CO2, 21 h) | Colony Color (E. faecium (enfu); enfu 49032, CO2, 21 h) | Colony Color ([7]; cifr 8454) | Colony Color ([7]; cifr 33128) | Colony Color ([9]; aehy 7965) | Colony Color ([9]; aehy 7966) | Colony Color ([9]; aehy 49847) | Colony Color ([12]; sema 13880, CO2, 21 h)
<: Growth (N. gonorrhoeae 35201) | Growth (Group B Strep. 12386; TSA II 5SB) | Growth (Group B Strep. 12386; TSA Plain)
lgb: Colony Color ([1]; enfa 10741, air, 21 h) | Colony Color ([1]; enfa 14506, CO2, 21 h)
